Data published in patent publication US8796456B2, “Naphthalene diimide compounds” (University College London, priority 2007, dated 2014).

Experiments:
telomeric G-quadruplex = type: binding, human; conditions: for FRET-Q ΔTm(0.5 μM): telomeric G-quadruplex sequence, 0.5 μM compound, maximum error ± 1° C.
Experimental: (§1) 50 μL of annealed DNA and 50 μL of compound per well were put into 96-well plates and processed in a DNA Engine Opticon (MJ Research). […] The raw data were imported into Origin 7.0 (OriginLab Corp.) and the graphs smoothed using a 10-point running average and subsequently normalised. For the determination of the melting temperature, the first derivative of the smoothed melting curve was calculated.
(§2) The initial assessment of the DNA stabilisation ability of the compounds was done using FRET. Four different DNA sequences were used—a model for the human telomeric G-quadruplex, a self-complementary duplex DNA hairpin and two sequences that are present in the promoter region of the CKIT gene. A FRET competition experiment was also run in which affinity for the telomeric G-quadruplex sequence was evaluated in presence of increasing concentrations of duplex DNA. These experiments allowed us to assess the selectivity of the ligands between quadruplex and duplex DNA.

ckit2 G-quadruplex = assay: FRET melting assay, ckit2 G-quadruplex; type: binding; conditions: ckit2 G-quadruplex sequence, 0.5 μM compound, maximum error ± 1° C.
Experimental: as §1, §2

MCF7 cells = assay: Senescence β-galactosidase staining in MCF7 cells; type: cell-based, human; conditions: at 70 nM
Experimental: Senescence detection and quantification experiments were carried out using a commercially available kit (Senescence β-galactosidase staining kit, Cell Signalling Technology, MA, USA). 1×10^5 cells were seeded in a 35 mm well of a 6-well plate (Nunc, Denmark) in 2 ml of medium and compound to test. The cells were incubated for 24 hours. The medium was then removed and the cells were washed with PBS (1×2 ml). The cells were fixed by treating them with 1 ml of fixative solution (2% formaldehyde and 2% glutaraldehyde in PBS) for 15 minutes at RT. The fixative solution was then removed and the wells washed with PBS (2×2 ml). Freshly prepared staining solution (a mixture of 930 μL of 40 mM citric acid/sodium phosphate (pH 6.0), 0.15 M NaCl and 2 mM MgCl2, 10 μL of 500 mM potassium ferrocyanide, 10 μL of 500 mM potassium ferricyanide and 50 μL of 20 mg/ml 5-bromo-4-chloro-3-indolyl-μD-galactopyranoside in DMF) (1 ml) was added and the cells were incubated overnight. The senescent cells, detected by their blue pigmentation, were quantified under a light microscope.
Senescence phenotype was investigated in MCF7 cells treated for 1 week with sub-cytotoxic concentrations of a selection of compounds.

telomerase = assay: Modified TRAP assay (telomerase inhibition); type: biochemical
HGC-27 cells (gastric) = assay: SRB toxicity assay, HGC-27; type: cell-based; conditions: Homo sapiens, HGC-27, 96 h
Experimental: (§3) Human cancer cell lines, breast (MCF7), lung (A549), colon (HT-29), gastric (HGC-27) and normal human lung fibroblast lines (WI-38) were purchased from American Type Cell Culture (ATCC). The GIST882 line was a gift from Dr Jonathan Fletcher. All cell lines except HGC27 and WI38 were maintained in Dulbecco's Modified Eagles Media containing 10% foetal bovine serum (Invitrogen, UK), […] hydrocortisone (Acros Chemicals, Loughborough, UK), 2 mM L-glutamine (Invitrogen, Netherlands), and non-essential amino-acids (Invitrogen, Netherlands), and incubated at 37° C., 5% CO2. The WI38 and HGC27 lines were maintained in minimum essential medium, prepared as above. All cell lines were routinely passaged at a ratio of 1:6.
(§4) Short-term growth inhibition was measured using the SRB assay as described previously. Briefly, cells were seeded (4000 cells/wells) into the wells of 96 well-plates in appropriate medium and incubated overnight to allow the cells to attach. Subsequently cells were exposed to freshly-made solutions of drugs and incubated for a further 96 h. Following this the cells were fixed with ice cold trichlo-acetic acid (TCA) (10%, w/v) for 30 min and stained with 0.4% SRB dissolved in 1% acetic acid for 15 min. All incubations were carried out at room temperature.

duplex DNA = assay: FRET melting assay, duplex DNA; type: binding; conditions: duplex sequence, 0.5 μM compound, maximum error ± 1° C.
Experimental: as §1, with “calculated. The difference between the melting temperature at 0.5 μM of the compound and the melting temperature for the blank (ΔTm(0.5 μM)) was used for comparison.” for “calculated.”

ckit1 G-quadruplex = assay: FRET melting assay, ckit1 G-quadruplex; type: binding; conditions: ckit1 G-quadruplex sequence, 0.5 μM compound, maximum error ± 1° C.
Experimental: as §1, §2

HT-29 cells (colon) = assay: SRB toxicity assay, HT-29; type: cell-based; conditions: Homo sapiens, 96 h exposure, HT-29D
Experimental: as §3, §4

GIST882 cells = assay: SRB toxicity assay, GIST882; type: cell-based; conditions: Homo sapiens, 96 h exposure
Experimental: as §3, §4

CN(C)c1ccc(Nc2c3ccc(NC(=O)CCN4CCCC4)cc3nc3cc(NC(=O)CCN4CCCC4)ccc23)cc1 [BRACO19]
concentration required to increase the melting temperature by 35° C. (telomeric G-quadruplex; G-quadruplex DNA, FRET): 2.5 µM

CN(C)CCCNc1cc2c3c(c(NCCCN(C)C)cc4c3c1C(=O)N(CCCN(C)C)C4=O)C(=O)N(CCCN(C)C)C2=O [Compound 12]
FRET-ckit2 ΔTm(0.5 μM) (ckit2 G-quadruplex): 36.5 °C | Senescence (% of cells) after 1 week (MCF7) (MCF7 cells): 35.0 ± 3 (at 70 nM) % of cells | FRET-Q ΔTm(0.5 μM) (telomeric G-quadruplex): 33.2 °C | EC50 (telomerase): 25000 ± 2500 nM | IC50 (HGC-27 cells (gastric)): 510 nM | FRET-d ΔTm(0.5 μM) (duplex DNA): 4.5 °C | FRET-ckit1 ΔTm(0.5 μM) (ckit1 G-quadruplex): 29.75 °C | IC50 (HT-29 cells (colon)): 63 nM | IC50 (GIST882 cells): 1300 nM

CN(C)CCCNc1cc2c3c(ccc4c3c1C(=O)N(CCCN(C)C)C4=O)C(=O)N(CCCN(C)C)C2=O [Compound 13]
FRET-ckit2 ΔTm(0.5 μM) (ckit2 G-quadruplex): 29 °C | FRET-Q ΔTm(0.5 μM) (telomeric G-quadruplex): 26.5 °C | EC50 (telomerase): 17000 ± 1100 nM | FRET-d ΔTm(0.5 μM) (duplex DNA): 12.5 °C | FRET-ckit1 ΔTm(0.5 μM) (ckit1 G-quadruplex): 23.5 °C

CN(C)CCCN1C(=O)c2ccc3c4c(ccc(c24)C1=O)C(=O)N(CCCN(C)C)C3=O [Compound 32, reference compound]
FRET-ckit2 ΔTm(0.5 μM) (ckit2 G-quadruplex): 7.75 °C | FRET-Q ΔTm(0.5 μM) (telomeric G-quadruplex): 5.2 °C | FRET-d ΔTm(0.5 μM) (duplex DNA): 2.7 °C | FRET-ckit1 ΔTm(0.5 μM) (ckit1 G-quadruplex): 2.5 °C

CN(C)CCN1C(=O)c2ccc3c4c(ccc(c24)C1=O)C(=O)N(CCN(C)C)C3=O [Compound 33, N,N′-bis(3-(dimethylamino)ethylamino)-1,4,5,8-naphthalenetetracarboxylic acid diimide, reference compound]
FRET-ckit2 ΔTm(0.5 μM) (ckit2 G-quadruplex): 7.25 °C | FRET-Q ΔTm(0.5 μM) (telomeric G-quadruplex): 3.2 °C | FRET-d ΔTm(0.5 μM) (duplex DNA): 1 °C | FRET-ckit1 ΔTm(0.5 μM) (ckit1 G-quadruplex): 1.25 °C
